From patent publication US5948791A, “Quinoline derivatives for treating malaria” (Hoffmann-La Roche Inc., priority 1995, dated 1999)
Read-outs that look alike come from different tables or passages of the source.

Key:
Plasmodium falciparum K1 = experiment: Growth inhibition of Plasmodium falciparum K1 (chloroquine-resistant) in vitro, [G-3H]-hypoxanthin incorporation; assay type: cell-based, Plasmodium falciparum (strain K1); conditions: for IC50: Plasmodium falciparum, K1, 72 h, read-out: IC50 for P. falciparum K1; for Resistance index: ratio of the IC50 for K1 and the IC50 for NF54
How it was run: (§1)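 Asynchronous intraerythrocytic cultures in human A+ erythrocytes (0.7% parasitemia, 2.5% suspension) in RPMI 1640 with HEPES, NaHCO3 and human serum, exposed to compound titrated over 6-7 steps for 72 h at 37° C, 3% O2. Growth by [G-3H]-hypoxanthin incorporation against untreated controls; IC50 by logit regression.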

[1] = tested on: Plasmodium falciparum strain NF54; experiment: Growth inhibition of Plasmodium falciparum NF54 (chloroquine-sensitive) in vitro, [G-3H]-hypoxanthin incorporation; assay type: cell-based; conditions: chloroquine-sensitive strain NF54, 72 h, read-out: IC50 for P. falciparum NF54
How it was run: as §1

Plasmodium berghei = experiment: animal or person; assay type: in vivo, Plasmodium berghei (strain ANKA) in mice; conditions: Plasmodium berghei, mice, blood smears 48 h after treatment
How it was run: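 Male albino mice (~25 g) infected i.v. on D0 with P. berghei ANKA (0.2 ml of 10^8 parasitized erythrocytes/ml); single s.c. and p.o. dose 24 h post-infection, 10 mg/kg screen then titration.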

[2] = po, single peroral dose of 10 mg/kg, read-out: Growth inhibition in % after po administration (GI%, percentage reduction of the parasitemia)
[3] = sc, single subcutaneous dose of 10 mg/kg, read-out: Growth inhibition in % after sc administration (GI%, percentage reduction of the parasitemia)

Cl.Cl.Clc1ccc(CN[C@H]2CCCC[C@@H]2Nc2ccnc3cc(Cl)ccc23)cc1 [Example 61, (1S,2S)-N1-(7-Chloro-quinolin-4-yl)-N2-(4-chloro-benzyl)-cyclohexane-1,2-diamine dihydrochloride]
IC50 (Plasmodium falciparum K1): 11.2 ng/mL
Resistance index (Plasmodium falciparum K1): 0.9
IC50 [1]: 12.7 ng/mL
inhibition in vivo at 10 mg/kg (Plasmodium berghei; [2]): 99.6%
inhibition in vivo at 10 mg/kg (Plasmodium berghei; [3]): 99.6%

Cl.Cl.Clc1ccc(CN[C@H]2CCCC[C@@H]2Nc2ccnc3cc(Cl)ccc23)c(Cl)c1 [Example 62, (1S,2S)-N1-(7-Chloro-quinolin-4-yl)-N2-(2,4-dichloro-benzyl)-cyclohexane-1,2-diamine dihydrochloride]
IC50 (Plasmodium falciparum K1): 64.2 ng/mL
Resistance index (Plasmodium falciparum K1): 1.3
IC50 [1]: 50.8 ng/mL
inhibition in vivo at 10 mg/kg (Plasmodium berghei; [2]): 99.8%
inhibition in vivo at 10 mg/kg (Plasmodium berghei; [3]): 99.8%

Cl.Cl.Clc1ccc2c(N[C@H]3CCCC[C@@H]3NCc3ccc(Cl)c(Cl)c3)ccnc2c1 [Example 63, (1S,2S)-N1-(7-Chloro-quinolin-4-yl)-N2-(3,4-dichloro-benzyl)-cyclohexane-1,2-diamine dihydrochloride]
IC50 (Plasmodium falciparum K1): 14.6 ng/mL
Resistance index (Plasmodium falciparum K1): 1.4
IC50 [1]: 10.1 ng/mL
inhibition in vivo at 10 mg/kg (Plasmodium berghei; [2]): 99.9%
inhibition in vivo at 10 mg/kg (Plasmodium berghei; [3]): 99.9%

Cl.Cl.FC(F)(F)c1ccc(CN[C@H]2CCCC[C@@H]2Nc2ccnc3cc(Cl)ccc23)c(C(F)(F)F)c1 [Example 64, (1S,2S)-N1-(7-Chloro-quinolin-4-yl)-N2-(2,4-bis-trifluoromethyl-benzyl)-cyclohexane-1,2-diamine dihydrochloride]
IC50 (Plasmodium falciparum K1): 82.3 ng/mL
Resistance index (Plasmodium falciparum K1): 2.3
IC50 [1]: 35.7 ng/mL
inhibition in vivo at 10 mg/kg (Plasmodium berghei; [2]): 87%
inhibition in vivo at 10 mg/kg (Plasmodium berghei; [3]): 66%

CN(C)c1ccc(CN[C@H]2CCCC[C@@H]2Nc2ccnc3cc(Cl)ccc23)cc1.Cl.Cl [Example 66, (1S,2S)-N1-(7-Chloro-quinolin-4-yl)-N2-(4-dimethylamino-benzyl)-cyclohexane-1,2-diamine dihydrochloride]
IC50 (Plasmodium falciparum K1): 10.5 ng/mL
Resistance index (Plasmodium falciparum K1): 1.9
IC50 [1]: 5.6 ng/mL
inhibition in vivo at 10 mg/kg (Plasmodium berghei; [2]): 99.9%
inhibition in vivo at 10 mg/kg (Plasmodium berghei; [3]): 99.6%

Cl.Cl.N#Cc1ccc(CN[C@H]2CCCC[C@@H]2Nc2ccnc3cc(Cl)ccc23)cc1 [Example 67, (1S,2S)-N1-(7-Chloro-quinolin-4-yl)-N2-(4-cyano-benzyl)-cyclohexane-1,2-diamine dihydrochloride]
IC50 (Plasmodium falciparum K1): 23 ng/mL
Resistance index (Plasmodium falciparum K1): 2.5
IC50 [1]: 9.1 ng/mL
inhibition in vivo at 10 mg/kg (Plasmodium berghei; [2]): 99%
inhibition in vivo at 10 mg/kg (Plasmodium berghei; [3]): 99%

CN(C)c1ccc(CN[C@H]2CC[C@@H](Nc3ccnc4cc(Cl)ccc34)CC2)cc1.Cl.Cl.Cl [Example 69, cis-N1-(7-Chloro-quinolin-4-yl)-N4-(4-dimethylamino-benzyl)-cyclohexane-1,4-diamine trihydrochloride]
IC50 (Plasmodium falciparum K1): 4.6 ng/mL
Resistance index (Plasmodium falciparum K1): 1.2
IC50 [1]: 3.7 ng/mL
inhibition in vivo at 10 mg/kg (Plasmodium berghei; [2]): 100%
inhibition in vivo at 10 mg/kg (Plasmodium berghei; [3]): 100%

Cl.Cl.Clc1ccc2c(N[C@H]3CC[C@@H](NCc4ccccc4)CC3)ccnc2c1 [Example 70, cis-N1-(7-Chloro-quinolin-4-yl)-N4-(benzyl)-cyclohexane-1,4-diamine dihydrochloride]
IC50 (Plasmodium falciparum K1): 6.6 ng/mL
Resistance index (Plasmodium falciparum K1): 1.7
IC50 [1]: 3.8 ng/mL
inhibition in vivo at 10 mg/kg (Plasmodium berghei; [2]): 99.9%
inhibition in vivo at 10 mg/kg (Plasmodium berghei; [3]): 99.9%

Cl.Cl.Clc1cccc(CN[C@H]2CC[C@@H](Nc3ccnc4cc(Cl)ccc34)CC2)c1 [Example 71, cis-N1-(7-Chloro-quinolin-4-yl)-N4-(3-chloro-benzyl)-cyclohexane-1,4-diamine dihydrochloride]
IC50 (Plasmodium falciparum K1): 9.3 ng/mL
Resistance index (Plasmodium falciparum K1): 1.3
IC50 [1]: 7.1 ng/mL
inhibition in vivo at 10 mg/kg (Plasmodium berghei; [2]): 99.8%
inhibition in vivo at 10 mg/kg (Plasmodium berghei; [3]): 99.9%

Cl.Cl.Clc1ccc(CN[C@H]2CC[C@@H](Nc3ccnc4cc(Cl)ccc34)CC2)cc1 [Example 72, cis-N1-(7-Chloro-quinolin-4-yl)-N4-(4-chloro-benzyl)-cyclohexane-1,4-diamine dihydrochloride]
IC50 (Plasmodium falciparum K1): 11.2 ng/mL
Resistance index (Plasmodium falciparum K1): 1.0
IC50 [1]: 11.6 ng/mL
inhibition in vivo at 10 mg/kg (Plasmodium berghei; [2]): 99.5%
inhibition in vivo at 10 mg/kg (Plasmodium berghei; [3]): 99.9%

Cl.Cl.Clc1ccc(CN[C@H]2CC[C@@H](Nc3ccnc4cc(Cl)ccc34)CC2)c(Cl)c1 [Example 73, cis-N1-(7-Chloro-quinolin-4-yl)-N4-(2,4-dichloro-benzyl)-cyclohexane-1,4-diamine dihydrochloride]
IC50 (Plasmodium falciparum K1): 19 ng/mL
Resistance index (Plasmodium falciparum K1): 1.3
IC50 [1]: 15 ng/mL
inhibition in vivo at 10 mg/kg (Plasmodium berghei; [2]): 23%
inhibition in vivo at 10 mg/kg (Plasmodium berghei; [3]): 96%

Cl.Cl.Clc1ccc2c(N[C@H]3CC[C@@H](NCc4ccc(Cl)c(Cl)c4)CC3)ccnc2c1 [Example 74, cis-N1-(7-Chloro-quinolin-4-yl)-N4-(3,4-dichloro-benzyl)-cyclohexane-1,4-diamine dihydrochloride]
IC50 (Plasmodium falciparum K1): 14.5 ng/mL
Resistance index (Plasmodium falciparum K1): 0.6
IC50 [1]: 23.3 ng/mL
inhibition in vivo at 10 mg/kg (Plasmodium berghei; [2]): 83%
inhibition in vivo at 10 mg/kg (Plasmodium berghei; [3]): 84%

Cl.Cl.Clc1cc(Cl)cc(CN[C@H]2CC[C@@H](Nc3ccnc4cc(Cl)ccc34)CC2)c1 [Example 75, cis-N1-(7-Chloro-quinolin-4-yl)-N4-(3,5-dichloro-benzyl)-cyclohexane-1,4-diamine dihydrochloride]
IC50 (Plasmodium falciparum K1): 18 ng/mL
Resistance index (Plasmodium falciparum K1): 0.7
IC50 [1]: 25 ng/mL
inhibition in vivo at 10 mg/kg (Plasmodium berghei; [2]): 99.8%
inhibition in vivo at 10 mg/kg (Plasmodium berghei; [3]): 99.7%

Cl.Cl.Fc1cc(CN[C@H]2CC[C@@H](Nc3ccnc4cc(Cl)ccc34)CC2)ccc1Cl [Example 76, cis-N1-(7-Chloro-quinolin-4-yl)-N4-(4-chloro-3-fluoro-benzyl)-cyclohexane-1,4-diamine dihydrochloride]
IC50 (Plasmodium falciparum K1): 6.1 ng/mL
Resistance index (Plasmodium falciparum K1): 0.8
IC50 [1]: 7.2 ng/mL
inhibition in vivo at 10 mg/kg (Plasmodium berghei; [2]): 96%
inhibition in vivo at 10 mg/kg (Plasmodium berghei; [3]): 96%

Cl.Cl.FC(F)(F)c1cc(CN[C@H]2CC[C@@H](Nc3ccnc4cc(Cl)ccc34)CC2)cc(C(F)(F)F)c1 [Example 77, cis-N1-(7-Chloro-quinolin-4-yl)-N4-(3,5-bis-trifluoromethyl-benzyl)-cyclohexane-1,4-diamine dihydrochloride]
IC50 (Plasmodium falciparum K1): 63.2 ng/mL
Resistance index (Plasmodium falciparum K1): 0.7
IC50 [1]: 96.6 ng/mL
inhibition in vivo at 10 mg/kg (Plasmodium berghei; [2]): 99%
inhibition in vivo at 10 mg/kg (Plasmodium berghei; [3]): 98%

COc1ccc(CN[C@H]2CC[C@@H](Nc3ccnc4cc(Cl)ccc34)CC2)c(O)c1.Cl.Cl [Example 79, cis-N1-(7-Chloro-quinolin-4-yl)-N4-(2-hydroxy-4-methoxy-benzyl)-cyclohexane-1,4-diamine dihydrochloride]
IC50 (Plasmodium falciparum K1): 7.7 ng/mL
Resistance index (Plasmodium falciparum K1): 1.9
IC50 [1]: 4.1 ng/mL
inhibition in vivo at 10 mg/kg (Plasmodium berghei; [2]): 99.9%
inhibition in vivo at 10 mg/kg (Plasmodium berghei; [3]): 100%

COc1ccc(O)c(CN[C@H]2CC[C@@H](Nc3ccnc4cc(Cl)ccc34)CC2)c1.Cl.Cl [Example 80, cis-N1-(7-Chloro-quinolin-4-yl)-N4-(2-hydroxy-5-methoxy-benzyl)-cyclohexane-1,4-diamine dihydrochloride]
IC50 (Plasmodium falciparum K1): 18.4 ng/mL
Resistance index (Plasmodium falciparum K1): 2.1
IC50 [1]: 8.9 ng/mL
inhibition in vivo at 10 mg/kg (Plasmodium berghei; [2]): 99.9%
inhibition in vivo at 10 mg/kg (Plasmodium berghei; [3]): 100%

COc1ccc(CN[C@H]2CC[C@@H](Nc3ccnc4cc(Cl)ccc34)CC2)c(OC)c1.Cl.Cl [Example 81, cis-N1-(7-Chloro-quinolin-4-yl)-N4-(2,4-dimethoxy-benzyl)-cyclohexane-1,4-diamine dihydrochloride]
IC50 (Plasmodium falciparum K1): 9.7 ng/mL
Resistance index (Plasmodium falciparum K1): 2.3
IC50 [1]: 4.3 ng/mL
inhibition in vivo at 10 mg/kg (Plasmodium berghei; [2]): 100%
inhibition in vivo at 10 mg/kg (Plasmodium berghei; [3]): 100%

COc1cc(CN[C@H]2CC[C@@H](Nc3ccnc4cc(Cl)ccc34)CC2)cc(OC)c1.Cl.Cl [Example 82, cis-N1-(7-Chloro-quinolin-4-yl)-N4-(3,5-dimethoxy-benzyl)-cyclohexane-1,4-diamine dihydrochloride]
IC50 (Plasmodium falciparum K1): 8.5 ng/mL
Resistance index (Plasmodium falciparum K1): 1.5
IC50 [1]: 5.7 ng/mL
inhibition in vivo at 10 mg/kg (Plasmodium berghei; [2]): 99.9%
inhibition in vivo at 10 mg/kg (Plasmodium berghei; [3]): 99.9%

CSc1ccc(CN[C@H]2CC[C@@H](Nc3ccnc4cc(Cl)ccc34)CC2)cc1.Cl.Cl [Example 83, cis-N1-(7-Chloro-quinolin-4-yl)-N4-(4-methylsulphanyl-benzyl)-cyclohexane-1,4-diamine dihydrochloride]
IC50 (Plasmodium falciparum K1): 5.9 ng/mL
Resistance index (Plasmodium falciparum K1): 0.7
IC50 [1]: 8.6 ng/mL
inhibition in vivo at 10 mg/kg (Plasmodium berghei; [2]): 100%
inhibition in vivo at 10 mg/kg (Plasmodium berghei; [3]): 100%

Cl.Cl.O=[N+]([O-])c1ccc(CN[C@H]2CC[C@@H](Nc3ccnc4cc(Cl)ccc34)CC2)cc1 [Example 84, cis-N1-(7-Chloro-quinolin-4-yl)-N4-(4-nitro-benzyl)-cyclohexane-1,4-diamine dihydrochloride]
IC50 (Plasmodium falciparum K1): 7.8 ng/mL
Resistance index (Plasmodium falciparum K1): 1.1
IC50 [1]: 6.9 ng/mL
inhibition in vivo at 10 mg/kg (Plasmodium berghei; [2]): 100%
inhibition in vivo at 10 mg/kg (Plasmodium berghei; [3]): 100%

CCN(CC)c1ccc(CN[C@H]2CC[C@@H](Nc3ccnc4cc(Cl)ccc34)CC2)cc1.Cl.Cl.Cl [Example 85, cis-N1-(7-Chloro-quinolin-4-yl)-N4-(4-diethylamino-benzyl)-cyclohexane-1,4-diamine trihydrochloride]
IC50 (Plasmodium falciparum K1): 3.9 ng/mL
Resistance index (Plasmodium falciparum K1): 0.8
IC50 [1]: 4.6 ng/mL
inhibition in vivo at 10 mg/kg (Plasmodium berghei; [2]): 99.9%
inhibition in vivo at 10 mg/kg (Plasmodium berghei; [3]): 100%
